From patent US20220289753A1, “SHP2 INHIBITORS” (IRBM S.P.A., priority 2019, published 2022) come the findings set out here.

Assay [1] deals with T1, SHP-2 enzyme (Met1-Leu525) (Homo sapiens, UniProt Q06124).
T1 construct: synthetized by Origene, Met1-Leu525, cat #TP750155; purchased Origene TP750155
T1 sequence (Q06124 1-525): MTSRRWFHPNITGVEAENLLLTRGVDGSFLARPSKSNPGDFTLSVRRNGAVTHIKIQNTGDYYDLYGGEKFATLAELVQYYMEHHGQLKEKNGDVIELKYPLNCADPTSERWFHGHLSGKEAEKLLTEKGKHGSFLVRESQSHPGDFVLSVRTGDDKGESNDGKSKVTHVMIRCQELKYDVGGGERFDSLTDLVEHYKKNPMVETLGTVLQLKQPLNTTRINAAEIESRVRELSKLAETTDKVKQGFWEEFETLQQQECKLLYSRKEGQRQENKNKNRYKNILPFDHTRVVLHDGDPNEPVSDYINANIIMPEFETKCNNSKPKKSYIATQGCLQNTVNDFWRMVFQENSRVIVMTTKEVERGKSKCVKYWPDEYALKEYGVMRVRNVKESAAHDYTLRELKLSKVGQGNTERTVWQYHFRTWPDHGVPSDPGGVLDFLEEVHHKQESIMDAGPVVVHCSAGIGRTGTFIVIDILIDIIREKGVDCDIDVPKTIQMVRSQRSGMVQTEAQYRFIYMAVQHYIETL
The experiment in a line: SHP2 inhibition enzymatic assay (DiFMUP substrate, IRS1 peptide activation). In kind it is biochemical. Conditions: SHP2 wt; activated by 500 nM IRS1 peptide; 75 μM DiFMUP substrate. The method in brief:
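SHP-2 (Met1-Leu525, 0.5 nM final) preincubated 30 min with compounds and IRS1 activating peptide in HEPES pH 7.2 buffer with NaCl, KCl, EDTA, tween-20, 5 mM DTT. DiFMUP then added for 30 min at room temperature and fluorescence read. IC50 from four-parameter logistic fit of % inhibition.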

In assay [2] the test system is ERK phosphorylation in KYSE-520 cells. The experiment in a line: Phospho-ERK cellular assay (Advanced phospho-ERK1/2 (Thr202/Tyr204) TR-FRET kit). Conditions: Homo sapiens, KYSE-520, 2 h, KYSE-520 cells, 2 h at 37° C., TR-FRET; read-out: pERK IC50. In kind it is cell-based. A digest of the protocol:
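IC50 values are inflection points of four-parameter logistic fits of percent activity against compound dilution. Compound exposure lasted 2 h at 37° C in KYSE-520 cells. Lysates were probed overnight with Eu-cryptate/d2 antibodies to ERK1/2 phosphorylated at Thr202/Tyr204, so reduced TR-FRET indicates SHP2 inhibition.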
Background: TR-FRET usually uses a lanthanide donor and a delayed reading to cut background.

The structures appear in SMILES notation.

With `N[C@@H]1c2ccncc2CC12CCN(c1nc3ncc(Sc4ccnc(NC5CC5)c4Cl)nc3[nH]1)CC2` [Example 196, (S)-1′-(5-((3-chloro-2-(cyclopropylamino)pyridin-4-yl)thio)-1H-imidazo[4,5-b]pyrazin-2-yl)-5,7-dihydrospiro[cyclopenta[c]pyridine-6,4′-piperidin]-5-amine], the 50% inhibitory concentration (IC50) (usually the concentration at which inhibition is half-maximal) was less than 0.5 µM in assay [1] and less than 1 µM in assay [2].
The like results for `N[C@@H]1c2ccccc2CC12CCN(c1nc3ncc(Sc4ccnc5cccnc45)nc3[nH]1)CC2` [Example 164, (S)-1′-(6-((1,5-naphthyridin-4-yl)thio)-1H-imidazo[4,5-b]pyrazin-2-yl)-1,3-dihydrospiro[indene-2,4′-piperidin]-1-amine] were, in that order, less than 0.5 µM and less than 1 µM.
`COc1cnccc1Sc1cnc2nc(N3CCC4(CC3)Cc3ccc(F)cc3[C@H]4N)[nH]c2n1` [Example 182]: the values for the IC50 in assay [1] and in assay [2] were less than 0.5 µM and less than 1 µM, respectively.
Consider `N#Cc1c(Sc2cnc3[nH]c(N4CCC5(CC4)Cc4ccccc4[C@H]5N)nc3n2)ccnc1N` [Example 215, (S)-2-amino-4-((2-(1-amino-1,3-dihydrospiro[indene-2,4′-piperidin]-1′-yl)-1H-imidazo[4,5-b]pyrazin-5-yl)thio)nicotinonitrile], for which the values for the IC50 in assay [1] and in assay [2] were less than 0.5 µM and less than 1 µM, respectively.
With `COc1ncccc1Sc1cnc2[nH]c(N3CCC4(CC3)Cc3ccc(Br)cc3[C@H]4N)nc2n1` [Example 231, (S)-6-bromo-1′-(5-((2-methoxypyridin-3-yl)thio)-1H-imidazo[4,5-b]pyrazin-2-yl)-1,3-dihydrospiro[indene-2,4′-piperidin]-1-amine], the IC50 is less than 0.5 µM in assay [1] and less than 1 µM in assay [2].
The matching figures for `Nc1nccc(Sc2cnc3[nH]c(N4CCC5(CC4)Cc4ncc(F)cc4[C@@H]5N)nc3n2)c1Cl` [Example 229, (R)-1′-(5-((2-amino-3-chloropyridin-4-yl)thio)-1H-imidazo[4,5-b]pyrazin-2-yl)-3-fluoro-5,7-dihydrospiro[cyclopenta[b]pyridine-6,4′-piperidin]-5-amine]: less than 0.5 µM and more than 5 µM.
`C[C@@H]1OCC2(CCN(c3cc4nc(Sc5ccnc(N)c5Cl)cnc4[nH]3)CC2)[C@@H]1N` [Example 268, (3S,4S)-8-(2-((2-amino-3-chloropyridin-4-yl)thio)-5H-pyrrolo[2,3-b]pyrazin-6-yl)-3-methyl-2-oxa-8-azaspiro[4.5]decan-4-amine]: the 50% inhibitory concentration (IC50) is less than 0.5 µM in assay [1] and less than 1 µM in assay [2].
The matching figures for `Nc1nccc(Sc2cnc3[nH]c(N4CCC5(CC4)Cc4ncccc4[C@H]5N)nc3n2)c1Cl` [Example 145, (S)-1′-(5-((2-amino-3-chloropyridin-4-yl)thio)-1H-imidazo[4,5-b]pyrazin-2-yl)-5,7-dihydrospiro[cyclopenta[b]pyridine-6,4′-piperidin]-5-amine]: less than 0.5 µM and less than 1 µM.
The matching figures for `Nc1nccc(Sc2cnc3[nH]c(N4CCC5(CC4)Cc4ccccc4[C@H]5N)nc3n2)c1Cl` [Example 132, (S)-1′-(5-((2-amino-3-chloropyridin-4-yl)thio)-1H-imidazo[4,5-b]pyrazin-2-yl)-1,3-dihydrospiro[indene-2,4′-piperidin]-1-amine]: less than 0.5 µM and less than 1 µM.
Take `N[C@@H]1c2ccccc2CC12CCN(c1nc3nc(Sc4cccc(Cl)c4Cl)c(Cl)nc3[nH]1)CC2` [Example 259, (S)-1′-(6-chloro-5-((2,3-dichlorophenyl)thio)-1H-imidazo[4,5-b]pyrazin-2-yl)-1,3-dihydrospiro[indene-2,4′-piperidin]-1-amine]: the IC50 was less than 0.5 µM in assay [1] and less than 1 µM in assay [2].
With `Nc1nccc(Sc2cnc3nc(N4CCC5(CC4)Cc4cc(F)ccc4[C@H]5N)[nH]c3n2)c1Cl` [Example 199, (S)-1′-(6-((2-amino-3-chloropyridin-4-yl)thio)-1H-imidazo[4,5-b]pyrazin-2-yl)-5-fluoro-1,3-dihydrospiro[indene-2,4′-piperidin]-1-amine], the concentration for half-maximal inhibition (IC50) in assay [1] is less than 0.5 µM; in assay [2], less than 1 µM.
The like results for `Cn1ccc(Sc2cnc3nc(N4CCC5(CC4)Cc4ccccc4[C@H]5N)[nH]c3n2)c(Cl)c1=O` [Example 166, (S)-4-((2-(1-amino-1,3-dihydrospiro[indene-2,4′-piperidin]-1′-yl)-1H-imidazo[4,5-b]pyrazin-6-yl)thio)-3-chloro-1-methylpyridin-2(1H)-one] were, in that order, less than 0.5 µM and less than 1 µM.
With `N[C@@H]1c2ccccc2OC12CCN(c1nc3nc(Sc4cccnc4C(F)(F)F)cnc3[nH]1)CC2` [Example 143, (R)-1′-(5-((2-(trifluoromethyl)pyridin-3-yl)thio)-1H-imidazo[4,5-b]pyrazin-2-yl)-3H-spiro[benzofuran-2,4′-piperidin]-3-amine], the half-inhibitory concentration (IC50) in assay [1] was less than 0.5 µM; in assay [2], less than 1 µM.
The like results for `COc1nccc(Sc2cnc3[nH]c(N4CCC5(CC4)Cc4ccccc4[C@H]5N)nc3n2)c1Cl` [Example 239, (S)-1′-(5-((3-chloro-2-methoxypyridin-4-yl)thio)-1H-imidazo[4,5-b]pyrazin-2-yl)-1,3-dihydrospiro[indene-2,4′-piperidin]-1-amine] were, in that order, less than 0.5 µM and 1 to 5 µM.
The matching figures for `COc1cc2c(cc1F)[C@@H](N)C1(CCN(c3nc4ncc(Sc5ccncc5Cl)nc4[nH]3)CC1)C2` [Example 186, (S)-1′-(6-((3-chloropyridin-4-yl)thio)-1H-imidazo[4,5-b]pyrazin-2-yl)-6-fluoro-5-methoxy-1,3-dihydrospiro[indene-2,4′-piperidin]-1-amine]: less than 0.5 µM and less than 1 µM.
As to `N[C@@H]1c2cccnc2CC12CCN(c1nc3ncc(Sc4cccc(Cl)c4Cl)nc3[nH]1)CC2` [Example 172, (S)-1′-(5-((2,3-dichlorophenyl)thio)-1H-imidazo[4,5-b]pyrazin-2-yl)-5,7-dihydrospiro[cyclopenta[b]pyridine-6,4′-piperidin]-5-amine], the IC50 was less than 0.5 µM in assay [1] and less than 1 µM in assay [2].
The like results for `Nc1nccc(Sc2cnc3[nH]c(N4CCC5(CC4)Cc4ncc(F)cc4[C@H]5N)nc3n2)c1Cl` [Example 230, (S)-1′-(5-((2-amino-3-chloropyridin-4-yl)thio)-1H-imidazo[4,5-b]pyrazin-2-yl)-3-fluoro-5,7-dihydrospiro[cyclopenta[b]pyridine-6,4′-piperidin]-5-amine] were, in that order, less than 0.5 µM and 1 to 5 µM.
Consider `Nc1nccc(Sc2cnc3[nH]c(N4CCC5(CC4)Cc4cc(F)c(F)cc4[C@H]5N)nc3n2)c1Cl` [Example 188, (S)-1′-(5-((2-amino-3-chloropyridin-4-yl)thio)-1H-imidazo[4,5-b]pyrazin-2-yl)-5,6-difluoro-1,3-dihydrospiro[indene-2,4′-piperidin]-1-amine], for which the half-maximal inhibitory concentration (IC50) is less than 0.5 µM in assay [1] and less than 1 µM in assay [2].
With `CC1(N)CCN(c2nc3nc(Sc4cccc5nccnc45)cnc3[nH]2)CC1` [Example 71, 4-methyl-1-(5-(quinoxalin-5-ylthio)-1H-imidazo[4,5-b]pyrazin-2-yl)piperidin-4-amine], the figures for the 50% inhibitory concentration (IC50) in assay [1] and in assay [2] were less than 0.5 µM and 1 to 5 µM, respectively.
The matching figures for `N[C@@H]1c2ccccc2CC12CCN(c1nc3nc(Sc4ccnnc4Cl)cnc3[nH]1)CC2` [Example 247, (S)-1′-(5-((3-chloropyridazin-4-yl)thio)-1H-imidazo[4,5-b]pyrazin-2-yl)-1,3-dihydrospiro[indene-2,4′-piperidin]-1-amine]: less than 0.5 µM and less than 1 µM.
The like results for `CN1C(=O)COc2c(Sc3cnc4nc(N5CCC6(CC5)Cc5ccccc5[C@H]6N)[nH]c4n3)cccc21` [Example 173, (S)-8-((2-(1-amino-1,3-dihydrospiro[indene-2,4′-piperidin]-1′-yl)-1H-imidazo[4,5-b]pyrazin-6-yl)thio)-4-methyl-2H-benzo[b][1,4]oxazin-3(4H)-one] were, in that order, less than 0.5 µM and 1 to 5 µM.
The matching figures for `Cn1c(N2CCC(C)(N)CC2)nc2nc(Sc3cccnc3C(F)(F)F)cnc21` [Example 52, 4-methyl-1-(1-methyl-5-((2-(trifluoromethyl)pyridin-3-yl)thio)-1H-imidazo[4,5-b]pyrazin-2-yl)piperidin-4-amine]: less than 0.5 µM and more than 5 µM.
On to `N[C@@H]1c2ccccc2CC12CCN(c1nc3ncc(Sc4ccnc5nccnc45)nc3[nH]1)CC2` [Example 194, (S)-1′-(6-(pyrido[2,3-b]pyrazin-8-ylthio)-1H-imidazo[4,5-b]pyrazin-2-yl)-1,3-dihydrospiro[indene-2,4′-piperidin]-1-amine], for which the IC50 in assay [1] is less than 0.5 µM; in assay [2], less than 1 µM.
